Results on two compounds are retold here after patent publication US12636279B2, “Choline salt forms of an HIV capsid inhibitor” (Gilead Sciences, Inc., priority 2017, dated 2026).

Molecules are shown by their SMILES.

One data set relates to Human Liver Hepatocytes. The data set can be described thus: Test D: Metabolic Stability in Cultured Human Liver Hepatocytes. It counts as in vitro ADME. The note with it: pooled cryopreserved human hepatocytes, […] radiolabelled compound, 1 million cells/mL, 0-6 hours; calculated from stability data.
Data set [1] is described as follows: Atropisomer equilibrium and interconversion in solution. The settings on record: rotation along C—C bond between atropisomers. The class given is physicochemical.
For another data set, the system named is HIV-IIIb. Kind of data set: Test A: Antiviral Assay in MT4 Cells. The class given is cell-based, HIV-1. The note with it: Human immunodeficiency virus 1, IIIB, MT4, 120 h.

Procedure for HIV-IIIb: 1 mL Aliquots of MT4 cells were pre-infected for 3 hours at 37° C. with 25 μL of cell growth medium (mock-infected) or a fresh 1:250 dilution of an HIV-IIIb concentrated ABI stock (0.004 m.o.i.). Infected and uninfected cells were diluted in cell growth media and 35 μL (2000 cells) was added to each well of the assay plates.
Assay plates were then maintained in a humidified, 5% CO2 incubator at 37° C. After 5 days of incubation, 25 μL of 2× concentrated CellTiter-Glo™ Reagent (catalog #G7573, Promega Biosciences, Inc., Madison, WI) was added to each well of the assay plate. Cell lysis was carried out by incubating at room temperature for 10 minutes and then chemiluminescence was read using an Envision plate reader (PerkinElmer).
Procedure for Human Liver Hepatocytes: Test D. Metabolic Stability in Cultured Human Liver Hepatocytes
The final hepatocyte concentration was 1 million cells/mL. The hepatocyte/compound reaction mixture was dissolved in InVitroGRO™ KHB buffer (catalog #Z99074, BioreclamationIVT, Inc., Baltimore, MD) at pH 7.4. The incubations were performed in duplicate. A cell free control and a positive control were included in the incubations. The incubations were carried out with gentle shaking in a 37° C. incubator under a humid atmosphere of 95% air/5% CO2 (v/v). Aliquots (100 mL) were removed after 0, 1, 3, and 6 hours and added to 200 mL quenching solution that comprised 0.1% (v/v) TFA in 5% water/95% acetonitrile (v/v). The samples were placed on a shaker for 10 min, followed by centrifugation at 3000 g for 30 min. The samples of the supernatant were analyzed on a Dionex HPLC/PerkinElmer Flow Scintillation Analyzer as described below.
The column was a Phenomenex Synergi fusion RP (150×4.6 mm, 4 mm) maintained at 32 degrees Celsius. Mobile Phase A consisted of 0.1% (v/v) TFA in 99% water/1% acetonitrile (v/v). Mobile Phase B consisted of 0.1% (v/v) TFA in 5% water/95% acetonitrile (v/v). […]
Metabolic stability was determined by measuring the change in relative abundance of metabolites and parent over time and calculating from it the rate of disappearance of the parent compound. […]

On to `CC(C)(C#Cc1ccc(-c2ccc(Cl)c3c(NS(C)(=O)=O)nn(CC(F)(F)F)c23)c([C@H](Cc2cc(F)cc(F)c2)NC(=O)Cn2nc(C(F)(F)F)c3c2C(F)(F)[C@@H]2C[C@H]32)n1)S(C)(=O)=O` [Compound 1, N—((S)-1-(3-(4-Chloro-3-(methylsulfonamido)-1-(2,2,2-trifluoroethyl)-1H-indazol-7-yl)-6-(3-methyl-3-(methylsulfonyl)but-1-yn-1-yl)pyridin-2-yl)-2-(3,5-difluorophenyl)ethyl)-2-((3bS,4aR)-5,5-difluoro-3-(trifluoromethyl)-3b,4,4a,5-tetrahydro-1H-cyclopropa[3,4]cyclopenta[1,2-c]pyrazol-1-yl)acetamide], for which the “Predicted Human Hepatic Clearance” value in the data set on Human Liver Hepatocytes is 0.17 mL/min/kg. Further, the rotational energy barrier result in data set [1] was “about 24 kcal/mol”.
For orientation: EC50 means the midpoint of the concentration-response curve. A low value points to greater potency. Compound `Cn1nc(NS(C)(=O)=O)c2c(Cl)ccc(-c3ccc(C#CC(C)(C)O)nc3[C@H](Cc3cc(F)cc(F)c3)NC(=O)Cn3nc(C(F)(F)F)c4c3C(F)(F)[C@@H]3C[C@H]43)c21` [Compound B] had an EC50 in the data set on HIV-IIIb of 2.99 nM. That is a single-digit nanomolar value.
